This experiment deals with human PHD2 (Homo sapiens (Human), UniProt Q9GZT9). Put plainly: Test 2: human PHD2 inhibitory activity, fluorescence polarization assay of HIF-1α peptide proline hydroxylation. It counts as biochemical. Conditions: for inhibition at 1 µM: read-out: Percent inhibition (% at 1 μM); for IC50: human PHD2, fluorescence polarization assay, 20-min incubation at 30° C. Put shortly:
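Enzyme from lysate of cells expressing human PHD2 (NM_022051), 40 ng/well, added to compound and 19-residue HIF-1α peptide substrate; 20 min at 30° C., EDTA quench. Prolyl hydroxylation detected by HIF-OH antibody binding via fluorescence polarization; inhibition relative to compound-free wells.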

The mark [1] stands for this setting: test compound's concentration 1 μM, Test 2, fluorescence polarization assay.

Counter-ions that a name gives are not always drawn. Like-named read-outs stand apart in the source and are kept apart here.

As a reminder, the inhibition is the change of the read-out against control, counted positive when it falls. What is called IC50 is the concentration needed to halve the response being measured.

Chain of human PHD2 (Q9GZT9 whole entry): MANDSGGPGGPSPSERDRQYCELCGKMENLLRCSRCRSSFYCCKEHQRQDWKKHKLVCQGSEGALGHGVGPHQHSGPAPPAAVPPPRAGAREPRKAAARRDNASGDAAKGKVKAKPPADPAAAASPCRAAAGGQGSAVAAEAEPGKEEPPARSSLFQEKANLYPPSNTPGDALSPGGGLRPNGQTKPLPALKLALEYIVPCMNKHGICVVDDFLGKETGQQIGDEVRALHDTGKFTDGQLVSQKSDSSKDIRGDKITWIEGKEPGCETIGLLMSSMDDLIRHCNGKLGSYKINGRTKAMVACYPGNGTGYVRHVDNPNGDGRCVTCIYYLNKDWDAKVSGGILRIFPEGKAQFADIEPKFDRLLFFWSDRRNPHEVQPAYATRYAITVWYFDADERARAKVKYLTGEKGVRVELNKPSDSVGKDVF

For `CC1(C)CC(O)=C(C(=O)NCC(=O)O)C(=O)N1CC1CCN(C(=O)CC2CC2)CC1` [Ex. 6-18], under setting [1], the inhibition at 1 µM stood at 24%.

Take `O=C(O)CNC(=O)C1=C(O)CCN(Cc2ccc(OCc3cccnc3)cc2)C1=O` [Ex. 1-372]: under setting [1], the inhibition at 1 µM stood at 89%.

With `O=C(O)CNC(=O)C1=C(O)CCNC1=O` [Ex. 1-308], the inhibition at 1 µM under setting [1] was found to be 41%.

As to `COc1cccc(-c2ccc(CN3CCC(O)=C(C(=O)NCC(=O)O)C3=O)cn2)c1` [Ex. 2-51], the inhibition at 1 µM under setting [1] is 97%.

In the case of `CC1C(O)=C(C(=O)NCC(=O)O)C(=O)N1Cc1ccc(Oc2ccc(C(F)(F)F)cn2)cc1` (stereo not drawn) [Ex. 6-5], the inhibition at 1 µM under setting [1] was 97%.

Consider `O=C(O)CNC(=O)C1=C(O)CCN(CC2CCC(OCc3ccc(Cl)cc3)CC2)C1=O` (stereo not drawn) [Ex. 1-427], for which the inhibition at 1 µM under setting [1] was found to be 95%.

As for `Cc1ccc(COc2ccc(CN3CCC(O)=C(C(=O)NCC(=O)O)C3=O)cc2)cn1` [Ex. 1-398], under setting [1], the inhibition at 1 µM amounted to 91%.

For the compound `COc1cc(-c2ccc(CN3CCC(O)=C(C(=O)NCC(=O)O)C3=O)cc2)ccn1` [Ex. 2-41], the inhibition at 1 µM under setting [1] was determined as 93%.

As to `O=C(O)CNC(=O)C1=C(O)C[C@H](c2ccccc2)N(Cc2ccc(OCC3CC3)cc2)C1=O` [Ex. 6-10], the inhibition at 1 µM under setting [1] turned out to be 76%.

`O=C(O)CNC(=O)C1=C(O)CCN(Cc2ccc(-c3ccc(OC(F)(F)F)cc3)cn2)C1=O` [Ex. 2-39]: the inhibition at 1 µM under setting [1] came to 93%.

In the case of `O=C(O)CNC(=O)C1=C(O)CCN(Cc2ccc(OCc3ccccc3Cl)cc2)C1=O` [Ex. 1-369], the inhibition at 1 µM under setting [1] was 98%.

Regarding `O=C(O)CNC(=O)C1=C(O)CC2(CCCCC2)CN(Cc2ccc(-c3ccccc3)cc2)C1=O` [Ex. 1-312], the inhibition at 1 µM under setting [1] is 86%.

As to `O=C(O)CNC(=O)C1=C(O)CCN(Cc2cnc(Oc3ccc(C4CC4)cc3)cn2)C1=O` [Ex. 1-443], it took 21 nM to reach half-maximal inhibition (IC50). For the same compound, the inhibition at 1 µM under setting [1] was determined as 101%.

With `O=C(O)CNC(=O)C1=C(O)CC2(CCN(C(=O)c3ccccc3)CC2)N(Cc2ccccc2)C1=O` [Ex. 7-3, N-[(9-Benzoyl-1-benzyl-4-hydroxy-2-oxo-1,9-diazaspiro[5.5]undec-3-en-3-yl)carbonyl]glycine], the inhibition at 1 µM under setting [1] turned out to be 65%.

`O=C(O)CNC(=O)C1=C(O)C2(CCC2)N(Cc2ccc(-c3ccccc3)cc2)C1=O` [Ex. 6-3]: under setting [1], the inhibition at 1 µM was 96%.

Turning to `CN(C)CCCOc1ccc(CN2CCC(O)=C(C(=O)NCC(=O)O)C2=O)cc1` [Ex. 1-343], the inhibition at 1 µM under setting [1] worked out at 51%.

Consider `O=C(O)CNC(=O)C1=C(O)CCN(Cc2ccc(Oc3ccc(C(F)(F)F)cc3)cn2)C1=O` [Ex. 1-356], for which the IC50 came to 60 nM. For the same compound, the inhibition at 1 µM under setting [1] stood at 96%.

Consider `O=C(O)CNC(=O)C1=C(O)CC2(CCN(C(=O)c3ccccc3)CC2)N(Cc2ccc(-c3ccccc3)cc2)C1=O` [Ex. 7-1, N-{[9-Benzoyl-1-(4-biphenylylmethyl)-4-hydroxy-2-oxo-1,9-diazaspiro[5.5]undec-3-en-3-yl]carbonyl}glycine], for which the inhibition at 1 µM under setting [1] turned out to be 97%.

As for `O=C(O)CNC(=O)C1=C(O)CCN(CC2CC(c3ccc(F)cc3)C2)C1=O` (stereo not drawn) [Ex. 1-371], the inhibition at 1 µM under setting [1] turned out to be 90%.

For the compound `Cc1cc(CN2CCC(O)=C(C(=O)NCC(=O)O)C2=O)cnc1OCCC1CC1` [Ex. 1-411], under setting [1], the inhibition at 1 µM is 90%.

`CC1(C)CC(O)=C(C(=O)NCC(=O)O)C(=O)N1CC1CCN(c2ncccn2)CC1` [Ex. 6-17]: under setting [1], the inhibition at 1 µM was found to be 32%.

Turning to `O=C(O)CNC(=O)C1=C(O)CCN(Cc2ccc(C(=O)NCCN3CCCC3=O)cc2)C1=O` [Ex. 1-350], under setting [1], the inhibition at 1 µM was 61%.

`COc1cccc(Oc2ccc(CN3CCC(O)=C(C(=O)NCC(=O)O)C3=O)cn2)c1` [Ex. 1-354]: the IC50 was 61 nM. Moreover, the inhibition at 1 µM under setting [1] amounted to 96%.

In the case of `O=C(O)CNC(=O)C1=C(O)CCN(C[C@H]2CC[C@H](Oc3ccccn3)CC2)C1=O` [Ex. 1-439], under setting [1], the inhibition at 1 µM came out at 81%.

For the compound `CCCNC(=O)c1ccc(CN2CCC(O)=C(C(=O)NCC(=O)O)C2=O)cc1` [Ex. 1-322], the inhibition at 1 µM under setting [1] is 77%.

For the compound `Cc1cccc(COc2ccc(CN3CCC(O)=C(C(=O)NCC(=O)O)C3=O)cc2)c1` [Ex. 1-364], the inhibition at 1 µM under setting [1] is 97%.

In the case of `COc1ccc(CN2CCC(O)=C(C(=O)NCCCC(=O)O)C2=O)cc1` [Ex. 9-2], under setting [1], the inhibition at 1 µM worked out at 23%.

For the compound `NC(=O)[C@H]1CC(O)=C(C(=O)NCC(=O)O)C(=O)N1Cc1ccc(OCC2CC2)cc1` [Ex. 6-15], the inhibition at 1 µM under setting [1] was determined as 55%.

With `O=C(O)CNC(=O)C1=C(O)CCN(C[C@H]2C[C@H](Oc3ccc(Cl)cc3)C2)C1=O` [Ex. 1-454], the inhibition at 1 µM under setting [1] was 95%.

In the case of `O=C(O)CNC(=O)C1=C(O)C[C@@H](Cc2ccccc2)N(Cc2ccc(OCC3CC3)cc2)C1=O` [Ex. 6-21], the inhibition at 1 µM under setting [1] was 85%.

With `O=C(O)CNC(=O)C1=C(O)CCN(Cc2ccc(-c3ccc(C(=O)O)cc3)cc2)C1=O` [Ex. 2-34], the inhibition at 1 µM under setting [1] was found to be 97%.

With `Cc1ncccc1COc1ccc(CN2CCC(O)=C(C(=O)NCC(=O)O)C2=O)cc1` [Ex. 1-401], the inhibition at 1 µM under setting [1] came to 90%.

For the compound `CC1(C)C(O)=C(C(=O)NCC(=O)O)C(=O)N1Cc1ccc(OCC2CC2)cc1` [Ex. 6-9], the inhibition at 1 µM under setting [1] was found to be 85%.

The compound `Cc1ccc(Oc2ccc(CN3CCC(O)=C(C(=O)NCC(=O)O)C3=O)cc2)cc1C` [Ex. 1-386] yielded an IC50 of 48 nM. The inhibition at 1 µM under setting [1] came out at 92%.

With `CCCCCCCCCN1CCC(O)=C(C(=O)NCC(=O)O)C1=O` [Ex. 1-317], the inhibition at 1 µM under setting [1] amounted to 85%.

On to `O=C(O)CNC(=O)C1=C(O)CCN(C[C@H]2CC[C@H](Oc3ccc(Cl)cn3)CC2)C1=O` [Ex. 1-432], for which the inhibition at 1 µM under setting [1] came out at 93%.

For the compound `O=C(O)CNC(=O)C1=C(O)CCN(Cc2ccc(-c3ccc(C4CC4)cc3)cn2)C1=O` [Ex. 2-50], under setting [1], the inhibition at 1 µM was 99%.

With `O=C(O)CNC(=O)C1=C(O)CCN(C[C@H]2CC[C@H](Oc3ccc(F)cc3)CC2)C1=O` [Ex. 1-402], the inhibition at 1 µM under setting [1] turned out to be 109%.

Take `COc1ccc(-c2ccc(CN3CCC(O)=C(C(=O)NCC(=O)O)C3=O)cc2)nc1` [Ex. 1-426]: under setting [1], the inhibition at 1 µM stood at 88%.

With `O=C(O)CNC(=O)C1=C(O)CCN(C[C@H]2CC[C@H](Oc3ccc(C4CC4)cc3)CC2)C1=O` [Ex. 1-442], under setting [1], the inhibition at 1 µM was determined as 98%.

Regarding `O=C(O)CNC(=O)C1=C(O)CCN(C[C@H]2CC[C@H](Oc3ccc(F)cn3)CC2)C1=O` [Ex. 1-412], the inhibition at 1 µM under setting [1] worked out at 87%.

Turning to `Cc1ccc(Oc2ccc(CN3CCC(O)=C(C(=O)NCC(=O)O)C3=O)cn2)cc1F` [Ex. 1-367], the IC50 is 26 nM. The inhibition at 1 µM under setting [1] was 105%.

Regarding `O=C(O)CNC(=O)C1=C(O)CCN(Cc2ccc(-c3ccc(Cl)cc3)nc2)C1=O` [Ex. 2-46], under setting [1], the inhibition at 1 µM is 93%.

For `O=C(O)CNC(=O)C1=C(O)CCN(Cc2ccc(C(=O)NCc3ccccn3)cc2)C1=O` [Ex. 1-348], the inhibition at 1 µM under setting [1] came to 76%.

Regarding `Cc1ccc(CO[C@H]2CC[C@H](CN3CCC(O)=C(C(=O)NCC(=O)O)C3=O)CC2)cc1` [Ex. 1-450], the inhibition at 1 µM under setting [1] stood at 97%.

On to `O=C(O)CNC(=O)C1=C(O)CCN(CC2CCN(C(=O)OCc3ccccc3)CC2)C1=O` [Ex. 1-248], for which the inhibition at 1 µM under setting [1] is 94%.

For `CC(C)(C)c1ccc(-c2ccc(CN3C(=O)C(C(=O)NCC(=O)O)=C(O)C34CCCCC4)cc2)cc1` [Ex. 1-330], the inhibition at 1 µM under setting [1] worked out at 69%.

`CCCc1ccc(Oc2ccc(CN3CCC(O)=C(C(=O)NCC(=O)O)C3=O)cn2)cc1` [Ex. 1-377] displayed an IC50 of 15 nM. For the same compound, the inhibition at 1 µM under setting [1] came to 96%.

Turning to `O=C(O)CNC(=O)C1=C(O)CC2(CNC(=O)C2)N(Cc2ccc(-c3ccccc3)cc2)C1=O` (stereo not drawn) [Ex. 1-314], the inhibition at 1 µM under setting [1] was determined as 86%.

For `Cc1cc(CN2CCC(O)=C(C(=O)NCC(=O)O)C2=O)ccc1OCC1CC1` [Ex. 1-468, N-({1-[4-(Cyclopropylmethoxy)-3-methylbenzyl]-4-hydroxy-2-oxo-1,2,5,6-tetrahydro-3-pyridinyl}carbonyl)glycine sodium salt], the inhibition at 1 µM stood at 85%.

For `CS(=O)(=O)c1ccc(CN2CC3(CCCCC3)C(O)=C(C(=O)NCC(=O)O)C2=O)cc1` [Ex. 1-331], the inhibition at 1 µM under setting [1] is 75%.

`Cc1nc(CN2CCC(O)=C(C(=O)NCC(=O)O)C2=O)c[nH]1` [Ex. 1-339]: the inhibition at 1 µM under setting [1] worked out at 40%.

With `O=C(O)CNC(=O)C1=C(O)C[C@H](CO)N(Cc2ccc(OCC3CC3)cc2)C1=O` [Ex. 6-30], under setting [1], the inhibition at 1 µM worked out at 45%.

For `COc1ccncc1-c1ccc(CN2CCC(O)=C(C(=O)NCC(=O)O)C2=O)cc1` [Ex. 2-54], under setting [1], the inhibition at 1 µM was found to be 87%.

Consider `CN(C)C[C@@H]1CC(O)=C(C(=O)NCC(=O)O)C(=O)N1Cc1ccc(OCC2CC2)cc1` [Ex. 6-36], for which the inhibition at 1 µM under setting [1] came to 30%.

With `COc1ccc(CN2CCC(O)=C(C(=O)N[C@@H](C)C(=O)O)C2=O)cc1` [Ex. 9-4], under setting [1], the inhibition at 1 µM was found to be 42%.

For `O=C(O)CNC(=O)C1=C(O)C[C@H](Cc2ccccc2)N(Cc2ccc(OCC3CC3)cc2)C1=O` [Ex. 6-22], the inhibition at 1 µM under setting [1] is 88%.

Regarding `O=C(O)CNC(=O)C1=C(O)CCN(Cc2cnc(N3CCOCC3)s2)C1=O` [Ex. 1-340], under setting [1], the inhibition at 1 µM worked out at 69%.

For `Cn1cc(CN2CCC(O)=C(C(=O)NCC(=O)O)C2=O)cn1` [Ex. 1-337], the inhibition at 1 µM under setting [1] came to 66%.

As to `O=C(O)CNC(=O)C1=C(O)CC2(CCCCC2)CN(Cc2ccccc2)C1=O` [Ex. 1-310], the inhibition at 1 µM under setting [1] worked out at 59%.

For the compound `CS(=O)(=O)c1ccc(-c2ccc(CN3CCC(O)=C(C(=O)NCC(=O)O)C3=O)cc2)cc1` [Ex. 2-31], the inhibition at 1 µM under setting [1] was found to be 93%.

On to `O=C(O)CNC(=O)C1=C(O)CC(CO)(CCl)N(Cc2ccc(-c3ccccc3)cc2)C1=O` (stereo not drawn) [Ex. 1-465, N-{[1-(4-Biphenylylmethyl)-6-(chloromethyl)-4-hydroxy-6-(hydroxymethyl)-2-oxo-1,2,5,6-tetrahydro-3-pyridinyl]carbonyl}glycine], for which, under setting [1], the inhibition at 1 µM amounted to 80%.

With `O=C(O)CNC(=O)C1=C(O)CCN(C[C@H]2C[C@@H]2c2ccc(F)cc2)C1=O` [Ex. 1-352], the inhibition at 1 µM under setting [1] stood at 91%.

The record behind these values is patent publication US9422240B2, “Partially saturated nitrogen-containing heterocyclic compound” (TAISHO PHARMACEUTICAL CO., LTD, priority 2012, dated 2016).
